System: Bleomycin-induced pulmonary fibrosis
Assay: Bleomycin-induced pulmonary fibrosis in mice
Format: in vivo, mouse
Details: 30 mg/kg orally qd, relative to AM1476
Protocol: Pulmonary fibrosis was induced by a single intratracheal instillation of bleomycin (25 μg in 50 μL of 0.9% NaCl).[12] Treatment was initiated at two weeks after the first injection of bleomycin. AM1476 was administered orally at 1, 3, or 10 mg/kg once daily. Solvent (double‐distilled water) was used as a control, and nintedanib at 30 mg/kg orally every day (qd) was included as a comparator. The outcome was analyzed at two and four weeks after the first injection of bleomycin. Mice injected with 0.9% NaCl, the vehicle of bleomycin, served as nonfibrotic controls. Eight mice per group were analyzed.
Skin samples were fixed in 4% formalin for six hours and embedded in paraffin. Five‐micrometer sections were cut and stained with hematoxylin and eosin (H&E). The dermal thickness was quantified on H&E‐stained sections using images captured with a light microscope (Nikon eclipse 80i) at 100‐fold magnification by manually measuring the distance between the epidermal‐dermal junction and the dermal‐subcutaneous fat junction at four sites per mouse.[15], [16] For lung samples, the whole left lung was fixed in 4% formalin for six hours and embedded in paraffin. Five‐micrometer sections were cut and stained with trichrome and sirius red. Histologic readouts were evaluation of the fibrotic area as the percentage of the total lung area in sirius red–stained sections (two sections per mouse) and quantification of pulmonary changes using the Ashcroft score (four sections per mouse).[17], [18]
The amount of collagen protein in skin and lung samples was determined by hydroxyproline assay.[19], [20] After digestion in 6 M HCl for three hours at 120°C, the pH of the samples was adjusted to a pH range of 6–7 with 6 M NaOH. Afterward, 0.06 M chloramine T was added to each sample and incubated for 20 minutes at room temperature. Next, 3.15 M perchloric acid and 20% p‐dimethylaminobenzaldehyde were added, and samples were incubated for an additional 20 minutes at 60°C. The absorbance was determined at 557 nm with a Spectra MAX 190 microplate spectrophotometer. Absolute values were determined using a standard curved generated with type I collagen (Sigma‐Aldrich).

Compound: COC(=O)c1ccc2c(c1)NC(=O)/C2=C(\Nc1ccc(N(C)C(=O)CN2CCN(C)CC2)cc1)c1ccccc1 [nintedanib, reference compound]
- antifibrotic effects across the different readouts: comparable

Source: PMC12311259, “Antifibrotic effects of specific targeting of the 5‐hydroxytryptamine 2B receptor (5‐HT2BR) in murine models and ex vivo models of scleroderma skin” (Arthritis & Rheumatology (Hoboken, N.j.), 2025)
